As usually defined, the EC50 is the concentration giving half of the maximal effect. Read a low EC50 as an effect from little substance. In general, Ki refers to the dissociation constant of the complex between target and ligand, obtained from inhibition or displacement.

Results on 17 molecules are retold here after ChEMBL document CHEMBL1149237, “Design and synthesis of benzofused heterocyclic RXR modulators” (Bioorg Med Chem Lett, 2004).

Assay [1] deals with T1, Peroxisome proliferator-activated receptor gamma (Homo sapiens) (UniProt P37231).
T1 sequence (whole entry): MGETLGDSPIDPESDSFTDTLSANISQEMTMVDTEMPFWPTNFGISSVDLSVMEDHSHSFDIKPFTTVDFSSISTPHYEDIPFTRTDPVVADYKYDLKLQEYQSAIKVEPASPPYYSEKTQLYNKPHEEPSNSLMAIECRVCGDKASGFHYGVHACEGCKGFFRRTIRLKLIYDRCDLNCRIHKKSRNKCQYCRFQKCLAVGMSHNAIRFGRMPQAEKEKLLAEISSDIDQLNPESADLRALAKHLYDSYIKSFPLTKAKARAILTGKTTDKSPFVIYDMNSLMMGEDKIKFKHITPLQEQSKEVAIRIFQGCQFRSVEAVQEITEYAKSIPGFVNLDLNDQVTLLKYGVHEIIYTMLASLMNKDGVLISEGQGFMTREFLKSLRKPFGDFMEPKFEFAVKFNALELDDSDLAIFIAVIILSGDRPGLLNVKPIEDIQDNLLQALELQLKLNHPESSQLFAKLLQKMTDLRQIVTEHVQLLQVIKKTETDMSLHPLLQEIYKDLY
The assay can be described thus: Ratio between agonistic efficacy in PPAR gamma. Type of assay: functional. The conditions noted are these: Cercopithecidae.

Assay [2] concerns the target T2, Retinoic acid receptor RXR-alpha (Homo sapiens) (UniProt P19793).
T2 sequence (whole entry): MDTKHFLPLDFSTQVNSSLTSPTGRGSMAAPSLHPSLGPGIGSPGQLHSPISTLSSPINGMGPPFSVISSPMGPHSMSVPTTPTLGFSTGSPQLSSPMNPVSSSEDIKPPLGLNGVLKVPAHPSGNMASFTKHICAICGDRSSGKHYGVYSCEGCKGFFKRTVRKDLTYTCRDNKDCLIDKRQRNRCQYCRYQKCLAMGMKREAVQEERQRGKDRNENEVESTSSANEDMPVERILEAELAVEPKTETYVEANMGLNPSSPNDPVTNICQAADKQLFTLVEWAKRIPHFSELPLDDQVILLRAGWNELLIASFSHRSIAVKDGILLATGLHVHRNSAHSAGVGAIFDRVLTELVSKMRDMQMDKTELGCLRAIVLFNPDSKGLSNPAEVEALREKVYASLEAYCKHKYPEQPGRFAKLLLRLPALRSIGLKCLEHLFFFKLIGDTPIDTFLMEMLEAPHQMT
The experiment in a line: Agonistic efficacy in CV-1 cells (LGD1069 was used as reference). The settings on record: Cercopithecidae. It is filed as functional, cell-based.

Assay [3] has as its target T1, Peroxisome proliferator-activated receptor gamma (Homo sapiens). The experiment in a line: Ratio between effective concentrations (Agonist) in PPAR gamma. The conditions noted are these: Cercopithecidae. Type of assay: functional.
For assay [4], the target named is T3, Retinoic acid receptor RXR-alpha (Homo sapiens, UniProt P19793).
T3 sequence (P19793 whole entry): T2 sequence (whole entry)
The assay can be described thus: Effective concentration for antagonistic activity against RXR-alpha expressed in CV-1 cells. It is filed as functional, cell-based, Cercopithecidae.

Assay [5] addresses T3, Retinoic acid receptor RXR-alpha. The experiment in a line: Ability to displace [3H]9-cis-RA from Retinoid X receptor alpha in CV-1 cells. It is filed as cell-based, Cercopithecidae.
In assay [6] the target is T2, Retinoic acid receptor RXR-alpha (Homo sapiens). The assay can be described thus: Antagonistic efficacy in CV-1 cells (LGD1069 was used as reference). Type of assay: functional, cell-based. The settings on record: Cercopithecidae.
For assay [7], the system named is Cercopithecidae. The assay can be described thus: RAR agonist synergy calculated using 3 nM of TTNPB. It is filed as functional.
For assay [8], the target named is T4, Retinoic acid receptor gamma (Homo sapiens, UniProt P13631).
T4 sequence (P13631 whole entry): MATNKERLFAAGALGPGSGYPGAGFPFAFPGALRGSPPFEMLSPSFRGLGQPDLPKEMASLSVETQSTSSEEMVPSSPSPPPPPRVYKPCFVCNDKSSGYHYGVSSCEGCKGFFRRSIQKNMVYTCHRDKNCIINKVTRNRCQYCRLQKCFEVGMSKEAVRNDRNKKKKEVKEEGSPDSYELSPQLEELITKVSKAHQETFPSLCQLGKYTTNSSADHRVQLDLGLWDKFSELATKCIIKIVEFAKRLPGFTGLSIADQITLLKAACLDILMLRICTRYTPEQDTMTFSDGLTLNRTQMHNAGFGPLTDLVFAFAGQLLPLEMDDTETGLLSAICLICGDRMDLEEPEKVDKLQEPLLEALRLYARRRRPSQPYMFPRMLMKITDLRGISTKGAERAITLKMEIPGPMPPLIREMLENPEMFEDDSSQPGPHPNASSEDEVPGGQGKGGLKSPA
The experiment in a line: Ability to displace [3H]ATRA from Retinoic acid receptor gamma in CV-1 cells. Type of assay: cell-based, Cercopithecidae.

The target of assay [9] is T3, Retinoic acid receptor RXR-alpha. The assay can be described thus: Effective concentration required for agonistic activity in CV-1 cells expressing RXR-alpha. Type of assay: functional, cell-based, Cercopithecidae.

Turning to `CCCOc1c(-c2c[nH]c3ccc(/C(C)=C/C(=O)O)cc23)cc(C(C)(C)C)cc1C(C)(C)C`, the Ratio in [1] stood at 173; in [3], 7. The values for the Efficacy in assay [2] and in assay [6] were 7% and 81%, respectively. The molecule also registered a 50% effective concentration (EC50) in assay [4] of 30.1 nM. Also, the inhibition constant (Ki) in [5] was 1.6 nM; in assay [8] it was more than 10 µM. The Synergy in assay [7] was 3.4.

For the molecule `C/C(=C\C(=O)O)c1ccc2[nH]cc(-c3cc(C(C)(C)C)cc(C(C)(C)C)c3OCC(F)F)c2c1`, the Ratio in [1] turned out to be 233; in [3], 21.9. Also, the Efficacy in assay [2] worked out at 15%; in assay [6], 41%. In addition, the EC50 came to 65 nM in [9] and 66.3 nM in [4]. Moreover, the inhibition constant Ki is 1.6 nM in [5] and more than 10 µM in [8]. Besides, in assay [7], the Synergy was 3.

For `C/C(=C/C=C/C(C)=C/C(=O)O)c1cc(C(C)(C)C)cc(C(C)(C)C)c1OCCCF`, the Ratio in assay [1] was found to be 60; in assay [3] it was 3.1. Further, the Efficacy turned out to be 4% in assay [2] and 84% in [6]. This molecule yielded a concentration giving a half-maximal response (EC50) in [4] of 6.4 nM. The inhibition constant Ki is 2.7 nM in assay [5] and more than 10 µM in assay [8]. Also, the Synergy in [7] is 1.4.

Take `C/C(=C\C(=O)O)c1ccc2scc(-c3cc(C(C)C)cc(C(C)C)c3OCCCF)c2c1`: the figures for the Ratio in [1] and in [3] were 123 and 1480, respectively. Also, the figures for the Efficacy in assay [2] and in [6] were 1.78% and 48%, respectively. The molecule also returned a concentration for a half-maximal effect (EC50) in [4] of 4150 nM. In addition, the values for the inhibition constant Ki in [5] and in assay [8] were 395 nM and more than 10 µM, respectively. The Synergy in [7] was 1.5.

For the molecule `CCOc1c(-c2cnc3ccc(/C(C)=C/C(=O)O)cn23)cc(C(C)C)cc1C(C)C`, the Ratio in assay [1] turned out to be 81.8; in assay [3], 425. For the same molecule, the Efficacy in assay [2] was 7.93%; in assay [6] it was 9%. Also, the Ki in assay [5] was 2080 nM; in assay [8], more than 10 µM. Moreover, the Synergy in [7] was 1.5.

For the molecule `CCOc1c(-c2n[nH]c3ccc(/C(C)=C/C(=O)O)cc23)cc(C(C)C)cc1C(C)C`, it took 235 nM to reach a half-maximal effect in assay [9] (EC50). In addition, the Ki in [5] was 69.2 nM; in [8] it was more than 10 µM.

With `CCOc1c(\C(C)=C/C=C/C(C)=C/C(=O)O)cc(C(C)C)cc1C(C)C`, the Ratio in assay [1] was 38; in [3], 8. In addition, the Efficacy in assay [2] was determined as 58%; in assay [6], 7%. In [7], the Synergy was 5. This molecule also yielded a Ki in assay [8] of more than 10 µM.

For `CCCCOc1c(-c2c[nH]c3ccc(/C(C)=C/C(=O)O)cc23)cc(C(C)(C)C)cc1C(C)(C)C`, the values for the Ratio in [1] and in [3] were 105 and 8.9, respectively. Besides, the values for the Efficacy in assay [2] and in assay [6] were 1% and 93%, respectively. The midpoint of the response in assay [4], the EC50, lay at 26.4 nM. The values for the Ki in assay [5] and in [8] were 3.2 nM and more than 10 µM, respectively. The Synergy in assay [7] is 2.3.

For `CCOc1c(-c2noc3ccc(/C(C)=C/C(=O)O)cc23)cc(C(C)C)cc1C(C)C`, the values for the Ratio in assay [1] and in assay [3] were 65 and 306, respectively. For the same molecule, the Efficacy in assay [2] turned out to be 36%; in assay [6], 24%. The molecule further returned a 50% effective concentration (EC50) in assay [9] of 1020 nM. Also, the inhibitory constant (Ki) in [5] is 648 nM; in assay [8], more than 10 µM. Besides, the Synergy in assay [7] is 1.7.

For `CCCCOc1c(\C(C)=C/C=C/C(C)=C/C(=O)O)cc(C(C)C)cc1C(C)C`, the figures for the Ratio in [1] and in [3] were 12 and 1890, respectively. Further, the Efficacy in assay [2] is 2%; in [6] it was 91%. Besides, a half-maximal effect in [4] (EC50) was put at 4 nM. Further, the Synergy in [7] is 1. The molecule further came in with a Ki in [8] of more than 10 µM.

As for `COc1c(-c2csc3ccc(/C(C)=C/C(=O)O)cc23)cc(C(C)C)cc1C(C)C`, the Ratio in assay [1] was determined as 114; in assay [3], 224. Further, the Efficacy in assay [2] was 65.4%; in [6], 0%. In assay [9], this molecule registered an EC50 of 914 nM. In addition, the inhibition constant (Ki) was 29.6 nM in [5] and more than 10 µM in assay [8]. The Synergy in assay [7] was 2.7.

Regarding `CCCCOc1c(-c2cn(C)c3ccc(/C(C)=C/C(=O)O)cc23)cc(C(C)C)cc1C(C)C`, the values for the Ratio in [1] and in [3] were 49 and 612, respectively. Moreover, the Efficacy in [2] came to 2.52%; in [6] it was 86%. The half-maximal effective concentration (EC50) in [4] came to 1530 nM. For the same molecule, the Ki is 740 nM in assay [5] and more than 10 µM in assay [8]. For the same molecule, the Synergy in [7] was 2.5.

For `CCCCOc1c(-c2c[nH]c3ccc(/C(C)=C/C(=O)O)cc23)cc(C(C)C)cc1C(C)C`, the Ratio in [1] is 256; in [3], 15. The results for the Efficacy in assay [2] and in [6] were 1.7% and 87%, respectively. This molecule also showed an EC50 in assay [4] of 21.1 nM. The values for the Ki in assay [5] and in [8] were 7.4 nM and more than 10 µM, respectively. Also, the Synergy in assay [7] was 1.3.

As for `CCOc1c(-c2[nH]nc3ccc(/C(C)=C/C(=O)O)cc23)cc(C(C)C)cc1C(C)C`, the Ratio in [1] was 168; in [3], 118. Also, the Efficacy was found to be 43% in assay [2] and 7% in [6]. Further, in [7], the Synergy is 2.4.

As for `CCOc1c(-c2csc3cnc(/C(C)=C/C(=O)O)cc23)cc(C(C)C)cc1C(C)C`, the Ratio in assay [1] was found to be 127; in assay [3], 347. In addition, the Efficacy in [2] was determined as 15.1%; in [6], 9%. The same molecule yielded a concentration giving a half-maximal response (EC50) in assay [9] of 1440 nM. For the same molecule, the Synergy in assay [7] was 2.

On to `C/C(=C\C(=O)O)c1ccc2scc(-c3cc(C(C)C)cc(C(C)C)c3O)c2c1`, for which the results for the Ratio in [1] and in assay [3] were 112 and 384, respectively. For the same molecule, the figures for the Efficacy in assay [2] and in assay [6] were 37.4% and 0%, respectively. In assay [9], this molecule returned a half-maximal effective concentration (EC50) of 1440 nM. Also, the values for the Ki in assay [5] and in assay [8] were 131 nM and more than 10 µM, respectively. For the same molecule, the Synergy in assay [7] was 3.5.

For `CCCCOc1c(-c2cccc3[nH]c(/C(C)=C/C(=O)O)cc23)cc(C(C)C)cc1C(C)C`, the figures for the Ratio in assay [1] and in [3] were 24.9 and 893, respectively. The Efficacy in assay [2] was determined as 0.51%; in assay [6], 64%. In addition, in assay [4], a half-maximal response (EC50) required 3980 nM. Further, the Synergy in [7] is 1.1.
